Test results from US7737182B2, “Pharmaceuticals for xerosis” (Taisho Pharmaceutical Co., Ltd., priority 2001, dated 2010).

Legend:
[1] = tested on: NC/Nga mice manifesting atopic dermatitis; assay: Spontaneous itch-evoked scratching behavior of NC mice (Test Example 1); assay type: in vivo
Protocol: About 20-week old NC/Nga mice each weighing about 30 g and manifesting atopic dermatitis were purchased from SLC and subjected to the following experiment. A magnet was buried in both hind paws of each mouse and by detecting its magnetism, the movement of the paws was measured with an itch measuring system (product of Neuroscience; when the mouse makes an action, the magnets move accordingly and a current flows through the coil; the moving magnets cause a change in the current, which is detected, measured and analyzed). Among the scratching actions, those lasting 1.5 seconds or longer were considered itch-evoked and their number was counted continuously. […] The subsequent 24-hr itch-evoked scratching behavior was measured and the number of itch-evoked scratchings after drug administration was compared with the initial count. The experimental data was processed to calculate the percent itch suppression on the basis of the total 24-hr itch-evoked scratching counts before and after drug application. For significance testing, the itch-evoked scratching counts that were obtained before and after drug application from individual animals in each group treated with a specific concentration of drug were processed by a paired t-test. Percent itch suppression (%)=(itch-evoked scratching count before drug application−itch-evoked scratching count after drug application)×100/itch-evoked scratching count before drug application (Results)

BALB/c male mice = assay: Mouse skin's barrier function, preventive test, TEWL (Test Example 6); assay type: in vivo; conditions: cohabitation with dermatitic NC/Nga mice; 0.01% in ethanol, 100 μL, once a day for 7 days
Protocol: Six-week-old BALB/c male mice in groups of six were shaven in a rostral dorsolateral area of 4 cm^2 (2 cm×2 cm) with electric clippers and kept in the same cage as NC/Nga mice that had developed dermatitis. From the day next to the start of cohabitation, a solvent (ethanol, 100 μL) or a drug dissolved in the solvent (compound No. 7, PGD2, PGF2α, or PGE1, all being at 0.01% in an amount of 100 μL) was applied to the shaven site for 7 days on once-a-day basis.
On the day next to the seventh application of the solvent or drug, the transepidermal water loss (TEWL) at the same site was measured with Tewameter (TM210 of Courage & Khazawa, Germany) to evaluate the drug's action, with the solvent-applied group being used as the control group.

[2] = biological target: T1, thromboxane (TP) receptor (Homo sapiens, UniProt P21731); assay: Human TP antagonistic action: [3H]SQ29548 binding to human washed platelets
T1 construct: endogenous in cells; host or cells: human washed platelets
T1 sequence (P21731 1-343): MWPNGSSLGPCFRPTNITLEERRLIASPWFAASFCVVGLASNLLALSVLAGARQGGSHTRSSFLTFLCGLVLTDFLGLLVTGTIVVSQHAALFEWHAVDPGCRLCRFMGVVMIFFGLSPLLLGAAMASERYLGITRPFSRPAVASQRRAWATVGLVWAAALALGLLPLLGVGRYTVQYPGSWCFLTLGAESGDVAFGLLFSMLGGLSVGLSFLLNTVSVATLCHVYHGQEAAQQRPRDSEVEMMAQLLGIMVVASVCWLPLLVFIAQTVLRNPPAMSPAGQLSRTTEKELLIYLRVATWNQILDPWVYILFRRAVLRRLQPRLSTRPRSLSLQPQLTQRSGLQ
Protocol: (C) The effect of the active ingredient of the present invention (compound No. 7) on a thromboxane (TP) receptor was measured as compared with the thromboxane agonist U44069 as a positive control drug.
The antagonistic action of the test drug on the [^3H]SQ29548 binding to human washed platelets was investigated on the basis of a documented method (J. Pharmacol. Exp. Ther., vol. 245, pp. 786-792, 1988).

guinea pig platelets = assay: Suppression of ADP-induced aggregation of guinea pig platelets; assay type: cell-based; conditions: Cavia porcellus; guinea pig platelet-rich plasma, ADP (3 μM)
Protocol: Ten-week-old Hartley male guinea pigs were anesthetized with pentobarbital (30 mg/kg, i.p. injected) and a total of 20 mL of blood was sampled into a syringe containing 2.0 mL of 3.8% sodium citrate. The blood was immediately centrifuged at 900 rpm for 10 minutes at 20° C. to recover the supernatant PRP. By further centrifugation at 3000 rpm for 10 minutes at 20° C., the supernatant PPP was recovered. The platelet count of PRP was diluted with PPP to 30×10^4 platelets/μL for subsequent use.
For platelet aggregation measurement, a platelet aggregation measuring instrument (PAM-8C) was employed. To 274 μL of PRP, 1 μL of a 0.287-95.7 nM test drug solution in ethanol was added and the mixture was incubated at 37° C. for 3 minutes with stirring at 1000 rpm. After the incubation, 25 μL of ADP (3 μM) was added to induce platelet aggregation and a maximum percent aggregation for 5 minutes was measured.
The percent suppression of aggregation by each test drug was calculated from the maximum percent aggregation by the test drug as relative to the maximum percent aggregation by ethanol instead of the test drug solution and IC50 values were determined from the constructed dose-response curve.

human platelets = assay: Suppression of ADP-induced aggregation of human platelets; assay type: cell-based; conditions: human platelet-rich plasma, ADP (3 μM), Born method
Protocol: (A) Using the active ingredient of the present invention (compound No. 7) and PGD2 as a control for comparison, prostaglandin D receptor binding selectivity was determined with reference to the platelet aggregation suppressing action as the prostaglandin D receptor agonist action. 1. Human Platelet Aggregation Suppressing Action Suppression of ADP-Induced Aggregation of Human Platelets
The test was performed on purchased platelet-rich plasma (PRP) (6×10^8 platelets/mL) and platelet aggregation was measured based on the Born method (Nature, vol. 194, p. 927, 1962). To 100 μL of PRP, 5 μL of a 1 nM-3 μM test drug solution in ethanol was added and the mixture was incubated at 37° C. for 1 minute with stirring at 1000 rpm. To the resulting mixture, 5 μL of an aggregation inducer [ADP (3 μM)] was added to induce platelet aggregation and a maximum percent aggregation (a maximum change in light transmittance that occurred within 5 minutes after the induction of platelet aggregation) was determined by an aggregometer. The percent suppression of aggregation by each test drug was calculated from the maximum percent aggregation by the test drug as relative to the maximum percent aggregation by ethanol instead of the test drug solution and IC50 values were determined from the constructed dose-response curve.

[3] = tested on: Fifty-week-old BALB/c male mice; assay: Aged mouse skin's barrier function, treatment test, TEWL (Test Example 7); assay type: in vivo; conditions: 50-week-old mice; 0.0001% in ethanol, 200 μL, once a day for 3 days
Protocol: Fifty-week-old BALB/c male mice (eight in each group) were shaven in a rostral dorsolateral area of 4 cm^2 (2 cm×2 cm) with electric clippers. Starting on the next day, a solvent (ethanol, 200 μL) or a drug dissolved in the solvent (compound No. 7 or PGD2, each being at 0.0001% in an amount of 200 μL) was applied to the shaven site for 3 days on once-a-day basis.
On the day next to the third application of the solvent or drug, TEWL at the same site was measured with Tewameter (TM210 of Courage & Khazawa, Germany) to evaluate the drug's action.

inhibition at 1 µM ([2]; 1 μM): 7%
inhibition at 10 µM ([2]; concentration of 10 μM): 28%
IC50 (guinea pig platelets): 6.2 ± 2.3 nM
IC50 (human platelets): 4.27 nM
SMILES: O=C(O)CSCCCC[C@@H]1[C@@H](C#C[C@@H](O)C2CCCCC2)[C@H](O)C[C@H]1Cl [Compound No. 7]
Inhibition rate (%) (percent itch suppression) ([1]; concentration 0.000001% in 100% ethanol, 0.2 ml/mouse on dorsal skin, 24-hr scratching counts before vs after): 43.26%
Efficacy (significance, paired t-test) ([1]; concentration 0.000001%, scratching counts before vs after application): ** (**: P < 0.01)
transepidermal water loss (TEWL) compared to the control group (BALB/c male mice): significant decrease in TEWL
transepidermal water loss (TEWL) compared to the control group [3]: significant decrease in TEWL
